Test system: MV-4-11 cells
Assay: Gene expression microarray analysis (Affymetrix PrimeView) and GSEA
Format: cell-based, human
Design: RFU PODN (11730768_x_at) / Fold change /veh PODN (11730768_x_at) / RFU LINC00158 (11744669_a_at) / Fold change /veh LINC00158 (11744669_a_at) / RFU DUSP10 (11751237_a_at) / Fold change /veh DUSP10 (11751237_a_at) / RFU ID3 (11757404_x_at) / Fold change /veh ID3 (11757404_x_at) / RFU PLEKHG5 (11737974_s_at) / Fold change /veh PLEKHG5 (11737974_s_at) / RFU LRRC4B (11730491_at) / Fold change /veh LRRC4B (11730491_at) / RFU GIMAP4 (11747438_a_at) / Fold change /veh GIMAP4 (11747438_a_at) / RFU KRT8 (11758183_x_at) / Fold change /veh KRT8 (11758183_x_at) / RFU CNN1 (11734310_a_at) / Fold change /veh CNN1 (11734310_a_at) / RFU VPS37D (11726825_at) / Fold change /veh VPS37D (11726825_at) / RFU C10orf10 (11716522_x_at) / Fold change /veh C10orf10 (11716522_x_at) / RFU KIR2DL2 /// KIR2DL4 /// KIR2DL5A /// KIR2DL5B /// KIR2DS1 /// KIR2DS2 /// KIR2DS3 /// KIR2DS4 /// KIR3DL3 /// KIR3DL3 /// KIR3DS1 (11738374_at) / Fold change /veh KIR2DL2 /// KIR2DL4 /// KIR2DL5A /// KIR2DL5B /// KIR2DS1 /// KIR2DS2 /// KIR2DS3 /// KIR2DS4 /// KIR3DL3 /// KIR3DL3 /// KIR3DS1 (11738374_at) / RFU C1QL1 (11718748_at) / Fold change /veh C1QL1 (11718748_at) / RFU TMPRSS4 (11747572_a_at) / Fold change /veh TMPRSS4 (11747572_a_at) / RFU HAMP (11756126_x_at) / Fold change /veh HAMP (11756126_x_at) / RFU RNFT2 (11725882_a_at) / Fold change /veh RNFT2 (11725882_a_at) / RFU NR4A2 (11747474_a_at) / Fold change /veh NR4A2 (11747474_a_at) / RFU ABCC12 (11746883_a_at) / Fold change /veh ABCC12 (11746883_a_at) / RFU TMEM136 (11760407_x_at) / Fold change /veh TMEM136 (11760407_x_at) / RFU CLDN22 /// WWC2 (11732394_at) / Fold change /veh CLDN22 /// WWC2 (11732394_at) / RFU HLA-DPB1 (11760878_x_at) / Fold change /veh HLA-DPB1 (11760878_x_at) / RFU SPINT1 (11716480_a_at) / Fold change /veh SPINT1 (11716480_a_at) / RFU GAP43 (11754022_s_at) / Fold change /veh GAP43 (11754022_s_at) / RFU A4GNT (11735810_at) / Fold change /veh A4GNT (11735810_at) / RFU PRB3 (11715151_x_at) / Fold change /veh PRB3 (11715151_x_at) / RFU TUBB4B (11761932_at) / Fold change /veh TUBB4B (11761932_at) / RFU CAPN14 (11732068_a_at) / Fold change /veh CAPN14 (11732068_a_at) / RFU TMCC2 (11721928_a_at) / Fold change /veh TMCC2 (11721928_a_at) / RFU IRGQ (11745062_a_at) / Fold change /veh IRGQ (11745062_a_at) / RFU FAM174B (11720279_a_at) / Fold change /veh FAM174B (11720279_a_at) / RFU TMPRSS4 (11748680_a_at) / Fold change /veh TMPRSS4 (11748680_a_at) / RFU FAM212B (11763350_a_at) / Fold change /veh FAM212B (11763350_a_at) / RFU PLEKHG5 (11743358_a_at) / Fold change /veh PLEKHG5 (11743358_a_at) / RFU ZSCAN30 (11745921_a_at) / Fold change /veh ZSCAN30 (11745921_a_at) / RFU CMKLR1 (11741424_a_at) / Fold change /veh CMKLR1 (11741424_a_at) / RFU LOC101060620 /// MAPK8IP1 (11723275_at) / Fold change /veh LOC101060620 /// MAPK8IP1 (11723275_at) / RFU SPTSSB (11747773_x_at) / Fold change /veh SPTSSB (11747773_x_at) / RFU PRSS12 (11739890_at) / Fold change /veh PRSS12 (11739890_at) / RFU BIN1 (11741810_x_at) / Fold change /veh BIN1 (11741810_x_at) / RFU WNT11 (11732464_a_at) / Fold change /veh WNT11 (11732464_a_at) / RFU C10orf10 (11716521_a_at) / Fold change /veh C10orf10 (11716521_a_at) / RFU C5orf56 (11738089_at) / Fold change /veh C5orf56 (11738089_at) / RFU CYB561 (11721691_x_at) / Fold change /veh CYB561 (11721691_x_at) / RFU ANKRD19P (11752326_a_at) / Fold change /veh ANKRD19P (11752326_a_at) / RFU OR2T12 /// OR2T33 /// OR2T8 (11738714_s_at) / Fold change /veh OR2T12 /// OR2T33 /// OR2T8 (11738714_s_at) / RFU VCAN (11748164_a_at) / Fold change /veh VCAN (11748164_a_at) / RFU JSRP1 (11732532_at) / Fold change /veh JSRP1 (11732532_at) / RFU KRTAP10-11 (11738290_x_at) / Fold change /veh KRTAP10-11 (11738290_x_at) / RFU MYO3A (11730013_a_at) / Fold change /veh MYO3A (11730013_a_at) / RFU EBF3 (11725865_a_at) / Fold change /veh EBF3 (11725865_a_at) / RFU CAMK2N1 (11719241_x_at) / Fold change /veh CAMK2N1 (11719241_x_at) / RFU C5orf56 (11738088_a_at) / Fold change /veh C5orf56 (11738088_a_at) / RFU OLFML3 (11715873_a_at) / Fold change /veh OLFML3 (11715873_a_at) / RFU LOC100653217 /// NTM (11731650_a_at) / Fold change /veh LOC100653217 /// NTM (11731650_a_at) / RFU MAPK11 (11762145_a_at) / Fold change /veh MAPK11 (11762145_a_at) / RFU FIZ1 (11724087_x_at) / Fold change /veh FIZ1 (11724087_x_at) / RFU OASL (11726364_x_at) / Fold change /veh OASL (11726364_x_at) / RFU SOX15 (11748057_x_at) / Fold change /veh SOX15 (11748057_x_at) / RFU CD79A (11719716_a_at) / Fold change /veh CD79A (11719716_a_at) / RFU HIST1H1D (11736915_at) / Fold change /veh HIST1H1D (11736915_at) / RFU CASKIN2 (11723855_a_at) / Fold change /veh CASKIN2 (11723855_a_at) / RFU LOC730098 (11760151_x_at) / Fold change /veh LOC730098 (11760151_x_at) / RFU OR4N2 (11742367_at) / Fold change /veh OR4N2 (11742367_at) / RFU PRRT2 (11749266_a_at) / Fold change /veh PRRT2 (11749266_a_at) / RFU SNX32 (11753110_a_at) / Fold change /veh SNX32 (11753110_a_at) / RFU CDHR5 (11726645_a_at) / Fold change /veh CDHR5 (11726645_a_at) / RFU RCAN1 (11760418_a_at) / Fold change /veh RCAN1 (11760418_a_at) / RFU FAM167A (11723789_a_at) / Fold change /veh FAM167A (11723789_a_at) / RFU FAM26E (11764081_at) / Fold change /veh FAM26E (11764081_at) / RFU ISYNA1 (11749810_s_at) / Fold change /veh ISYNA1 (11749810_s_at) / RFU ACY1 (11761880_at) / Fold change /veh ACY1 (11761880_at) / RFU 11764098_at / Fold change /veh 11764098_at / RFU SAMD14 (11745864_x_at) / Fold change /veh SAMD14 (11745864_x_at) / RFU NPB (11741838_a_at) / Fold change /veh NPB (11741838_a_at) / RFU TMPRSS6 (11731388_a_at) / Fold change /veh TMPRSS6 (11731388_a_at) / RFU KRTAP10-2 (11738614_at) / Fold change /veh KRTAP10-2 (11738614_at) / RFU ARHGAP8 /// PRR5-ARHGAP8 (11727945_x_at) / Fold change /veh ARHGAP8 /// PRR5-ARHGAP8 (11727945_x_at) / RFU KRTAP5-7 /// NADSYN1 (11734609_at) / Fold change /veh KRTAP5-7 /// NADSYN1 (11734609_at) / RFU RASL12 (11751679_a_at) / Fold change /veh RASL12 (11751679_a_at) / RFU CDKN2B (11736163_a_at) / Fold change /veh CDKN2B (11736163_a_at) / RFU PRF1 (11729649_at) / Fold change /veh PRF1 (11729649_at) / RFU, ZNF638 /// ZNF638-IT1 / Fold change vs veh, ZNF638 /// ZNF638-IT1 / RFU, PANK3 / Fold change vs veh, PANK3 / RFU, SH3YL1 / Fold change vs veh, SH3YL1 / RFU, ZEB2 / Fold change vs veh, ZEB2 / RFU, NRIP1 / Fold change vs veh, NRIP1 / RFU, PTTG1IP / Fold change vs veh, PTTG1IP / RFU, CAPN2 / Fold change vs veh, CAPN2 / RFU, MED14 / Fold change vs veh, MED14 / RFU, SNORA58 / Fold change vs veh, SNORA58 / RFU, C1orf63 / Fold change vs veh, C1orf63 / RFU, LRRFIP1 / Fold change vs veh, LRRFIP1 / RFU, NDUFAF7 / Fold change vs veh, NDUFAF7 / RFU, SLC12A2 / Fold change vs veh, SLC12A2 / RFU, IBTK / Fold change vs veh, IBTK / RFU, ESF1 / Fold change vs veh, ESF1 / Fold change vs veh, TMEM50B / RFU, TAOK1 / Fold change vs veh, TAOK1 / RFU, ACBD3 / Fold change vs veh, ACBD3 / RFU, TMA16 / Fold change vs veh, TMA16 / RFU, RWDD3 / Fold change vs veh, RWDD3 / RFU, BCAT1 / Fold change vs veh, BCAT1 / RFU, EDEM3 / Fold change vs veh, EDEM3 / RFU, TMEM33 / Fold change vs veh, TMEM33 / RFU, WDR75 / Fold change vs veh, WDR75 / RFU, AHCTF1 / Fold change vs veh, AHCTF1 / RFU, TFRC / Fold change vs veh, TFRC / RFU, ZDHHC17 / Fold change vs veh, ZDHHC17 / RFU, NOM1 / Fold change vs veh, NOM1 / RFU, ARL8B / Fold change vs veh, ARL8B / RFU, ZBTB11 / Fold change vs veh, ZBTB11 / RFU, TAMM41 / Fold change vs veh, TAMM41 / RFU, KIAA1704 /// LOC100996395 / Fold change vs veh, KIAA1704 /// LOC100996395 / RFU, ING1 / Fold change vs veh, ING1 / RFU, TRMT61B / Fold change vs veh, TRMT61B / RFU, FUBP3 / Fold change vs veh, FUBP3 / RFU, TP53 / Fold change vs veh, TP53 / RFU, TNKS2 / Fold change vs veh, TNKS2 / RFU, ZFP14 / Fold change vs veh, ZFP14 / RFU, ACTR2 / Fold change vs veh, ACTR2 / RFU, PPP3R1 / Fold change vs veh, PPP3R1 / RFU, PIK3R1 / Fold change vs veh, PIK3R1 / RFU, HNRNPA1 / Fold change vs veh, HNRNPA1 / RFU, RNF170 / Fold change vs veh, RNF170 / RFU, ZNF28 / Fold change vs veh, ZNF28 / RFU, RNGTT / Fold change vs veh, RNGTT / RFU, OGT / Fold change vs veh, OGT / RFU, BRD1 / Fold change vs veh, BRD1 / RFU, MARS / Fold change vs veh, MARS / RFU, ZNF655 / Fold change vs veh, ZNF655 / RFU, FAHD1 / Fold change vs veh, FAHD1 / RFU, BDP1 / Fold change vs veh, BDP1 / RFU, LRRCC1 / Fold change vs veh, LRRCC1 / RFU, ARID1A / Fold change vs veh, ARID1A / RFU, ZNF146 / Fold change vs veh, ZNF146 / RFU, ZNF330 / Fold change vs veh, ZNF330 / RFU, GPN3 / Fold change vs veh, GPN3 / RFU, C9orf123 / Fold change vs veh, C9orf123 / RFU, N4BP2L2 / Fold change vs veh, N4BP2L2 / RFU, ARFIP1 / Fold change vs veh, ARFIP1 / RFU, FAM179B / Fold change vs veh, FAM179B / RFU, BCL10 / Fold change vs veh, BCL10 / RFU, UHRF1BP1L / Fold change vs veh, UHRF1BP1L / RFU, BET1 / Fold change vs veh, BET1 / RFU, CNOT2 / Fold change vs veh, CNOT2 / RFU, ZNF268 / Fold change vs veh, ZNF268 / Fold change vs veh, ZNF507 / RFU, DGCR2 / Fold change vs veh, DGCR2 / RFU, WDSUB1 / Fold change vs veh, WDSUB1 / Fold change vs veh, HSP90B1 /// MIR3652 / RFU, ADSS / Fold change vs veh, ADSS / RFU, GK / Fold change vs veh, GK / RFU, ZNF148 / Fold change vs veh, ZNF148 / RFU, TAF9 / Fold change vs veh, TAF9 / RFU, SLC1A5 / Fold change vs veh, SLC1A5 / RFU, SLMO2 / Fold change vs veh, SLMO2 / RFU, ABCC4 / Fold change vs veh, ABCC4 / RFU, LOC101060439 /// RAP1B / Fold change vs veh, LOC101060439 /// RAP1B / RFU, RFX7 / Fold change vs veh, RFX7 / RFU, GTPBP10 / Fold change vs veh, GTPBP10 / RFU, CNEP1R1 / Fold change vs veh, CNEP1R1 / RFU, BIVM-ERCC5 /// ERCC5 / Fold change vs veh, BIVM-ERCC5 /// ERCC5 / RFU, ILF3 / Fold change vs veh, ILF3 / RFU 11762660_at / Fold change /veh 11762660_at / RFU VCAN (11757783_s_at) / Fold change /veh VCAN (11757783_s_at) / RFU DDX43 (11728927_at) / Fold change /veh DDX43 (11728927_at) / RFU KRT8 (11758188_x_at) / Fold change /veh KRT8 (11758188_x_at) / RFU NKD1 (11759106_at) / Fold change /veh NKD1 (11759106_at) / RFU SRD5A1 (11742802_a_at) / Fold change /veh SRD5A1 (11742802_a_at) / RFU TPSAB1 /// TPSB2 (11721975_s_at) / Fold change /veh TPSAB1 /// TPSB2 (11721975_s_at) / RFU GSTM3 (11746129_a_at) / Fold change /veh GSTM3 (11746129_a_at) / RFU IL23R (11737362_x_at) / Fold change /veh IL23R (11737362_x_at) / RFU TMEM51 (11727254_a_at) / Fold change /veh TMEM51 (11727254_a_at) / RFU PIWIL2 (11732686_x_at) / Fold change /veh PIWIL2 (11732686_x_at) / RFU ORM1 (11744905_x_at) / Fold change /veh ORM1 (11744905_x_at) / RFU CCDC152 (11743942_at) / Fold change /veh CCDC152 (11743942_at) / RFU ECM1 (11717891_a_at) / Fold change /veh ECM1 (11717891_a_at) / RFU IL23R (11748794_a_at) / Fold change /veh IL23R (11748794_a_at) / RFU TNFAIP8L3 (11732012_x_at) / Fold change /veh TNFAIP8L3 (11732012_x_at) / RFU MBOAT4 (11741988_at) / Fold change /veh MBOAT4 (11741988_at) / RFU 11764193_at / Fold change /veh 11764193_at / RFU TMEM53 (11763286_at) / Fold change /veh TMEM53 (11763286_at) / RFU MAGEB2 (11727129_at) / Fold change /veh MAGEB2 (11727129_at) / RFU TMEM200A (11744735_a_at) / Fold change /veh TMEM200A (11744735_a_at) / RFU CCDC152 (11751479_a_at) / Fold change /veh CCDC152 (11751479_a_at) / RFU FAM211A (11726209_a_at) / Fold change /veh FAM211A (11726209_a_at) / RFU RGS16 (11746705_a_at) / Fold change /veh RGS16 (11746705_a_at) / RFU VCAN (11755009_s_at) / Fold change /veh VCAN (11755009_s_at) / RFU RHOB (11743442_s_at) / Fold change /veh RHOB (11743442_s_at) / RFU RGS16 (11720943_a_at) / Fold change /veh RGS16 (11720943_a_at) / RFU RGS16 (11720944_at) / Fold change /veh RGS16 (11720944_at) / RFU, VPS4B / Fold change vs veh, VPS4B / RFU, CREB1 / Fold change vs veh, CREB1 / RFU, DNAJC13 / Fold change vs veh, DNAJC13 / RFU, GNAQ / Fold change vs veh, GNAQ / RFU, CDK5R1 / Fold change vs veh, CDK5R1 / RFU, ZRANB3 / Fold change vs veh, ZRANB3 / RFU, CUL4A / Fold change vs veh, CUL4A / RFU, CCNY / Fold change vs veh, CCNY / RFU, UFL1 / Fold change vs veh, UFL1 / RFU, COG3 / Fold change vs veh, COG3 / RFU, DIAPH2 / Fold change vs veh, DIAPH2 / RFU, SKA2 / Fold change vs veh, SKA2 / RFU, AFF3 / Fold change vs veh, AFF3 / RFU, LMF1 / Fold change vs veh, LMF1 / RFU, IPO11 / Fold change vs veh, IPO11 / RFU, DFFB / Fold change vs veh, DFFB / RFU, FOXP1 / Fold change vs veh, FOXP1 / RFU, CARD8 / Fold change vs veh, CARD8 / RFU, STRN3 / Fold change vs veh, STRN3 / RFU, ADK / Fold change vs veh, ADK / RFU, RASSF2 / Fold change vs veh, RASSF2 / RFU, WIPF1 / Fold change vs veh, WIPF1 / RFU, LARP1B / Fold change vs veh, LARP1B / RFU, RASA1 / Fold change vs veh, RASA1 / RFU, RB1 / Fold change vs veh, RB1 / RFU, PPFIA1 / Fold change vs veh, PPFIA1 / RFU, MAT2A / Fold change vs veh, MAT2A / RFU, CCT5 / Fold change vs veh, CCT5 / RFU, WDR92 / Fold change vs veh, WDR92 / RFU, CUX1 / Fold change vs veh, CUX1 / RFU, TTC7A / Fold change vs veh, TTC7A / RFU, TMEM135 / Fold change vs veh, TMEM135 / RFU, DEPTOR / Fold change vs veh, DEPTOR / RFU, CPM / Fold change vs veh, CPM / RFU, DNAJB6 / Fold change vs veh, DNAJB6 / RFU, CACNA2D3 / Fold change vs veh, CACNA2D3 / RFU, DTX4 / Fold change vs veh, DTX4 / RFU, TFCP2 / Fold change vs veh, TFCP2 / RFU, GMCL1 /// GMCL1P1 / Fold change vs veh, GMCL1 /// GMCL1P1 / RFU, AEBP2 / Fold change vs veh, AEBP2 / RFU, SNHG1 /// SNORD22 /// SNORD25 /// SNORD26 /// SNORD27 /// SNORD28 /// SNORD29 /// SNORD31 / Fold change vs veh, SNHG1 /// SNORD22 /// SNORD25 /// SNORD26 /// SNORD27 /// SNORD28 /// SNORD29 /// SNORD31 / Fold change (Aza/veh), C12orf56 (ProbeSet 11735607_a_at) / Fold change (ACY-1035/veh), C12orf56 (ProbeSet 11735607_a_at) / Fold change (Aza/veh), FGFR1OP (ProbeSet 11751329_s_at) / Fold change (ACY-1035/veh), FGFR1OP (ProbeSet 11751329_s_at) / Fold change (Aza/veh), VPS36 (ProbeSet 11739960_a_at) / Fold change (ACY-1035/veh), VPS36 (ProbeSet 11739960_a_at) / RFU SYPL1 (11715823_x_at) / Fold change /veh SYPL1 (11715823_x_at) / RFU IGFBP7 (11715501_s_at) / Fold change /veh IGFBP7 (11715501_s_at) / RFU REEP3 (11722064_at) / Fold change /veh REEP3 (11722064_at) / RFU IGLL1 (11728026_x_at) / Fold change /veh IGLL1 (11728026_x_at): dose or concentration left out as unconfirmed
Details: ProbeSet 11725217_a_at; LIST B

SMILES: Nc1ccc(-c2cccs2)cc1NC(=O)c1ccc2c(c1)cc(C1CC1)n2CCN1CCOCC1 [ACY-1035]
- Fold change vs veh, WDSUB1: 1.02

Source: publication PMC5218480 (PLoS ONE, 2017)
